Source: the supplement of paper PMC6723410

Tests used:
GUMC-403 [1] = experiment: viability at highest tested concentration (max response) relative to DMSO (% of DMSO control); higher = less cytotoxic; conditions: library / dose series: MIPE library, 11-point 1:3 dilution, 48 h
In short: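 Plates of 1536 wells were seeded with 700 patient-derived GUMC-403 papilloma cells per well, grown by conditional reprogramming, in 5 μL F + Y medium and kept overnight at 37 °C. Compounds followed at 23 nL by pin tool over an 11-point 1:3 series, for 48 h. After a CellTiter-Glo luminescence read on a ViewLux, signals were set against vehicle wells as 100% and empty wells as 0%. The reported number is viability at the highest tested concentration relative to vehicle control.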

GUMC-403 [2] = experiment: AC50 for reduction of cell viability; higher = less potent; conditions: 48 h
[3] = library / dose series: MIPE library, 11-point 1:3 dilution

Compound	viability (GUMC-403 [1]; top concentration 46.1 µM)	AC50 for reduction of cell viability (GUMC-403 [2]; [3]) [nM]	viability (GUMC-403 [1]; top concentration 92.2 µM)	AC50 for reduction of cell viability (GUMC-403 [2]; library / dose series: NPC library, 8-point 1:5 dilution) [nM]	viability (GUMC-403 [1]; top concentration 23 µM)
CN1CCN(c2cc(C(=O)Nc3ccc4c(c3)-c3c(c(C(N)=O)nn3-c3ccc(F)cc3)CC4)c(Cl)cn2)CC1	7.1	5260	–	–	–
COC1=CC=C2/C3=N/CCN3\C(=N/C2=C1OC)NC(=O)C4=CC=CN=C4	64.7	5900	–	–	–
Clc1ccc(C(c2ccc(Cl)cc2)[n+]2ccn(CC(OCc3ccc(Cl)cc3Cl)c3ccc(Cl)cc3Cl)c2)cc1 (stereo not drawn)	25.1	20900	–	–	–
N=C(NCCCCCCNC(=N)NC(=N)Nc1ccc(Cl)cc1)NC(=N)Nc1ccc(Cl)cc1	5.73	26400	–	–	–
C[C@@]12O[C@@H](C[C@]1(O)CO)n1c3ccccc3c3c4c(c5c6ccccc6n2c5c31)CNC4=O	7.55	5900	–	–	–
CC/C(=C(/c1ccc(O)cc1)c1ccc(OCCNC)cc1)c1ccccc1	23.9	23500	–	–	–
CC(=O)[C@]1(O)Cc2c(O)c3c(c(O)c2[C@@H](O[C@H]2C[C@H](N)[C@H](O)[C@H](C)O2)C1)C(=O)c1ccccc1C3=O	7.29	2350	–	–	–
O=C1NC(=O)/C(=C/c2ccc3nccc(-c4ccncc4)c3c2)S1	18.7	235	–	–	–
COc1ccc([C@@H]2CNC(=O)C2)cc1OC1CCCC1	51	2960	–	–	–
COc1cccc2c1C(=O)c1c(O)c3c(c(O)c1C2=O)C[C@@](O)(C(=O)CO)C[C@@H]3O[C@H]1C[C@H](N)[C@H](O)[C@H](C)O1	34.7	1870	–	–	–
CN[C@@H]1[C@H](O)[C@H](NC)[C@H]2O[C@@]3(O)C(=O)C[C@@H](C)O[C@H]3O[C@@H]2[C@H]1O	13.3	10500	–	–	–
CC(C)C1=C(O)C=C(O)C(=C1)C/2=N/NC(=O)N2C3=CC4=C(C=C3)[N](C)C=C4	61.4	148	–	–	–
COc1ccc(-c2nc(N3CCOCC3)c3sc(CN(C)c4ncc(C(=O)NO)cn4)cc3n2)cn1	44.7	1050	–	–	–
COc1cccc2cc(-c3nc(C4CCC(C(=O)O)CC4)n4ncnc(N)c34)[nH]c12 (stereo not drawn)	59.5	187	–	–	–
CN[S+](=O)([O-])CCc1ccc2[nH]cc(C3CCN(C)CC3)c2c1	70	2350	–	–	–
C[C@H](NCc1ccc2c(c1)nc(NC(=O)c1ccc(-c3cn[nH]c3)s1)n2CCc1ccccc1)C(C)(C)C	8.07	3720	–	–	–
c1cncc(CN2CCC(n3ncc4c(N5CCOCC5)nc(-c5ccc6[nH]ccc6c5)nc43)CC2)c1	62.6	332	–	–	–
CCC1=C2CN3C(=O)\C4=C(/C=C3/C2=NC5=CC=C(O)C=C15)[C@@](O)(CC)C(=O)OC4	78.2	4690	–	–	–
ClC1=CC\2=C(NC(=O)\C(=C2N[C@@H]3CN4CCC3CC4)C5=NC6=C([NH]5)C=CC=C6)C=C1	16.4	3320	–	–	–
C[C@@]12C(=O)OC(=O)[C@@]1(C)C1CCC2O1	21.1	5900	–	–	–
O=C(NCCCNc1nc(Nc2cccc(NC(=O)N3CCCC3)c2)ncc1I)c1cccs1	3.39	10500	–	–	–

Compound	viability (GUMC-403 [1]; top concentration 46.1 µM)	AC50 for reduction of cell viability (GUMC-403 [2]; [3]) [nM]	viability (GUMC-403 [1]; top concentration 92.2 µM)	AC50 for reduction of cell viability (GUMC-403 [2]; library / dose series: NPC library, 8-point 1:5 dilution) [nM]	viability (GUMC-403 [1]; top concentration 23 µM)
CC(NCc1ccc2c(c1)[nH]/c(=N\C(=O)c1ccc(-c3cn[nH]c3)s1)n2CC(C)(C)O)C(C)(C)C (stereo not drawn)	6.2	935	–	–	–
CN(C)CCN(C)C(=O)c1ccc(NC(=O)Nc2ccc(-c3nc(N4CCOCC4)c4ccn(CC(F)(F)F)c4n3)cc2)cc1	5.64	118	–	–	–
CCN(CC)CCNC(=O)c1c(C)[nH]c(/C=C2\C(=O)Nc3ccc(F)cc32)c1C	–	42900	5.58	–	–
C[S+](=O)([O-])N1CCN(Cc2cc3nc(-c4cccc5[nH]ncc45)nc(N4CCOCC4)c3s2)CC1	55.1	235	–	–	–
COc1cc2ncnc(Nc3ccc(F)c(Cl)c3)c2cc1OCCCN1CCOCC1	–	270	58.7	–	–
CC(C)C[C@H](NC(=O)CNC(=O)c1cc(Cl)ccc1Cl)B1OC(=O)CC(CC(=O)O)(C(=O)O)O1 (stereo partly drawn)	38.8	2350	–	–	–
O=C(NOCC1CC1)c1ccc(F)c(F)c1Nc1ccc(I)cc1Cl	20.7	23500	–	13300	–
N[S+](=O)([O-])OC[C@@H]1C[C@@H](n2ccc3c(N[C@H]4CCc5ccccc54)ncnc32)C[C@@H]1O	60.8	469	–	–	–
COC1=CC=C(C=N1)C/2=C/C3=C(C)N=C(N)N=C3N(C4CCC(CC4)OCCO)C2=O (stereo not drawn)	4.47	264	–	–	–
C[C@H]([C@H]1C\C(=C(CO)/C(=O)O1)C)[C@H]2CC[C@H]3[C@@H]4C[C@H]5O[C@]56[C@@H](O)\C=C/C(=O)[C@]6(C)[C@H]4CC[C@]23C	5.02	14800	–	–	–
CC(C)C[C@H](NC(=O)[C@H](CCc1ccccc1)NC(=O)CN1CCOCC1)C(=O)N[C@@H](Cc1ccccc1)C(=O)N[C@@H](CC(C)C)C(=O)[C@@]1(C)CO1	6.18	1050	–	–	–
COc1ccc(-c2ccc3c(N4CCOC[C@@H]4C)nc(N4CCOC[C@@H]4C)nc3n2)cc1CO	57.2	37.2	–	–	–
C/C=C1\NC(=O)[C@H]2CSSCC/C=C\[C@H](CC(=O)N[C@H](C(C)C)C(=O)N2)OC(=O)[C@H](C(C)C)NC1=O	6.97	105	–	–	–
CC/1=C(\O)C(=O)\C=C2/C1=C/C=C3\[C@@]2(C)CC[C@@]4(C)[C@@H]5C[C@@](C)(CC[C@]5(C)CC[C@]34C)C(O)=O	6.06	8330	–	–	–
COC1=C(OCCCN2CCOCC2)C=CC\3=C1/N=C(/NC(=O)C4=CN=C(N)N=C4)N5CC/N=C35	–	64.5	–	–	43.9
CC(C)C1=N[N](C\2=C1C(=O)N\C(=N2)CC3=CC=C(OCCO)C=C3)C4=C(Cl)C=CC=C4Cl	47.9	132	–	–	–
CNC(=O)c1ccc(Nc2cc(Nc3ccccc3[S+](=O)([O-])C(C)C)c3cc[nH]c3n2)nc1	10.4	18700	–	–	–
Cc1ncc(-c2ccnc(Nc3ccc([S+](C)(=O)[O-])cc3)n2)n1C(C)C	47.8	10500	–	–	–
CC(=O)SCC(Cc1ccccc1)C(=O)NCC(=O)OCc1ccccc1 (stereo not drawn)	42.8	1180	–	–	–
CC(=O)Nc1ccc([C@H](C)C(=O)Nc2ncc(C(C)C)s2)cc1	15.9	1660	–	–	–
